Measurements from patent US7482351B2, “4-pyrimidineamine compounds and their uses as anti-proliferative agents” (Rigel Pharmaceuticals, Inc., priority 2004, dated 2009).

Columns and labels:
Assay type in all cases: cell-based
[1] = system: HELA (cervical adenocarcinoma) cells; experiment: in vitro inhibition of HELA cells
Method: (§1) Various exemplary 5-fluoro-4-pyrmidineamine compounds (illustrated in TABLE 1, infra) were synthesized as described herein and tested for their ability to inhibit A549 (lung carcinoma), DLD-1 (colorectal adenocarcinoma), H1299 (non small cell lung carcinoma), HCT116 (colorectal carcinoma), HELA (cervical adenocarcinoma) and/or U2OS (bone osterosarcoma) cells in vitro. […] A blank indicates the particular compound was […].

[2] = system: U2OS (bone osterosarcoma) cells; experiment: in vitro inhibition of U2OS cells
Method: as §1

SKMEL28 (human melanoma) = experiment: additional cell line SKMEL28
Method: (§2) Compound 1 was tested against the following additional cell lines: ACHN (renal cell adenocarcimona), JAR (placental choriocarcinoma), MCF7 (estrogen-dependent breast adenocarcinoma), MDA-MB-231 (estrogen independent breast adenocarcinoma), SKMEL28 (human melanoma) and SKMEL5 (human melanoma). In all cases, the IC50 was less than 1 μM.

[3] = system: ACHN (renal cell adenocarcimona); experiment: additional cell line ACHN
Method: as §2

SKMEL5 (human melanoma) = experiment: additional cell line SKMEL5
Method: as §2

[4] = system: MDA-MB-231 (estrogen independent breast adenocarcinoma); experiment: additional cell line MDA-MB-231; conditions: MDA-MB-231 cell line
Method: as §2

[5] = system: H1299 (non small cell lung carcinoma) cells; experiment: in vitro inhibition of H1299 cells
Method: as §1

[6] = system: HCT116 (colorectal carcinoma) cells; experiment: in vitro inhibition of HCT116 cells
Method: as §1

[7] = system: MCF7 (estrogen-dependent breast adenocarcinoma); experiment: additional cell line MCF7
Method: as §2

[8] = system: JAR (placental choriocarcinoma); experiment: additional cell line JAR
Method: as §2

[9] = system: A549 (lung carcinoma) cells; experiment: in vitro inhibition of A549 cells
Method: as §1

[10] = system: DLD-1 (colorectal adenocarcinoma) cells; experiment: in vitro inhibition of DLD-1 cells; conditions: DLD-1 (colorectal adenocarcinoma) cells in vitro
Method: as §1

A549 = experiment: 9-point anti-proliferation assay, A549; conditions: A549, 9-point anti-proliferation assay
[11] = system: Miapaca2 (pancreatic carcinoma); experiment: 9-point anti-proliferation assay, Miapaca2; conditions: Miapaca2, 9-point anti-proliferation assay
[12] = system: Colo205 (colorectal adenocarcinoma); experiment: 9-point anti-proliferation assay, Colo205; conditions: Colo205, 9-point anti-proliferation assay
HCT116 = experiment: 9-point anti-proliferation assay, HCT116; conditions: HCT116, 9-point anti-proliferation assay

Row | IC50 [5] | IC50 [9] | Compound | other results
1 | ≤ 1000 nM | ≤ 1000 nM | CN(c1ccc2c(c1)OCCO2)c1nc(Cl)ncc1F [Compound 1, 2-chloro-N-4-(3,4-ethylenedioxyphenyl)-5-fluoro-N-4-methyl-4-pyrimidineamine] | IC50 [1]: ≤ 1000 nM; IC50 [2]: ≤ 1000 nM; IC50 (SKMEL28 (human melanoma)): < 1000 nM; IC50 [3]: < 1000 nM; IC50 (SKMEL5 (human melanoma)): < 1000 nM; IC50 [4]: < 1000 nM; IC50 [6]: ≤ 1000 nM; IC50 [7]: < 1000 nM; IC50 [8]: < 1000 nM
2 | ≤ 1000 nM | ≤ 1000 nM | COc1ccc(N(C)c2nc(Cl)ncc2F)cc1OC [Compound 2] | –
3 | ≤ 10000 nM | 1000 to 10000 nM | COc1c(Cl)cc(N(C)c2nc(Cl)ncc2F)cc1Cl [Compound 5] | –
4 | > 20000 nM | > 20000 nM | COc1cc(N(C)c2nc(Cl)ncc2F)ccc1Cl [Compound 6] | –
5 | ≤ 1000 nM | ≤ 1000 nM | COc1ccc(N(C)c2nc(Cl)ncc2F)cc1Cl [Compound 7] | –
6 | ≤ 10000 nM | 1000 to 10000 nM | CCCN(c1ccc(OC)c(Cl)c1)c1nc(Cl)ncc1F [Compound 9] | –
7 | > 20000 nM | > 20000 nM | COc1cc(N(C)c2nc(Cl)ncc2F)cc(OC)c1OC [Compound 10] | –
8 | > 20000 nM | > 20000 nM | Cc1cc(N(C)c2nc(Cl)ncc2F)cc(C)c1Cl [Compound 11] | –
9 | > 20000 nM | > 20000 nM | COc1cc(OC)cc(N(C)c2nc(Cl)ncc2F)c1 [Compound 12] | –
10 | 1000 to 10000 nM | ≤ 10000 nM | COc1ncc(F)c(N(C)c2ccc3c(c2)OCCO3)n1 [Compound 15] | –
11 | 1000 to 10000 nM | ≤ 10000 nM | CN(c1ccc2c(c1)OCCO2)c1nc(-c2cccnc2)ncc1F [Compound 27, N4-(3,4-Ethylenedioxyphenyl)-5-fluoro-N-4-methyl-2-(pyridin-3-yl)-4-pyrimidineamine] | –
12 | 1000 to 10000 nM | ≤ 10000 nM | Cc1noc(C)c1-c1ncc(F)c(N(C)c2ccc3c(c2)OCCO3)n1 [Compound 29, 2-(3,5-Dimethylisoxazol-4-yl)-N-4-(3,4-ethylenedioxyphenyl)-5-fluoro-N-4-methyl-4-pyrimidineamine] | –
13 | 1000 to 10000 nM | ≤ 10000 nM | CN(c1ccc2c(c1)OCCO2)c1nc(-c2nccs2)ncc1F [Compound 30, N4-(3,4-Ethylenedioxyphenyl)-5-fluoro-N-4-methyl-2-(thiazol-2-yl)-4-pyrimidineamine] | –
14 | 10000 to 20000 nM | > 20000 nM | CN(c1ccc2c(c1)OCCO2)c1nc(-c2ccc(Cl)s2)ncc1F [Compound 37, 2-(5-Chloro-2-thienyl)-N-4-(3,4-ethylenedioxyphenyl)-5-fluoro-N-4-methyl-4-pyrimidineamine] | –
15 | ≤ 1000 nM | ≤ 1000 nM | CN(c1ccc2c(c1)OCCO2)c1nc(-c2ccsc2C=O)ncc1F [Compound 39, N4-(3,4-ethylenedioxyphenyl)-5-fluoro-2-(2-formylthien-3-yl)-N-4-methyl-4-pyrimidineamine] | –
16 | 1000 to 10000 nM | ≤ 10000 nM | CNCc1sccc1-c1ncc(F)c(N(C)c2ccc3c(c2)OCCO3)n1 [Compound 40, N4-(3,4-ethylenedioxyphenyl)-5-fluoro-N-4-methyl-2-(2-methylaminomethylenethien-3-yl)-4-pyrimidineamine] | –
17 | 1000 to 10000 nM | ≤ 10000 nM | CN(c1ccc2c(c1)OCCO2)c1nc(-c2cc[s+]([O-])c2)ncc1F (stereo not shown) [Compound 41, N4-(3,4-ethylenedioxyphenyl)-5-fluoro-N-4-methyl-2-(1-oxide-3-thienyl)-4-pyrimidineamine] | –

Row | Compound | IC50 [5] | IC50 [9] | other results
18 | CN(c1ccc2c(c1)OCCO2)c1nc(-c2ccccc2)ncc1F [Compound 18, N4-(3,4-Ethylenedioxyphenyl)-5-fluoro-N-4-methyl-2-(phenyl)-4-pyrimidineamine] | ≤ 1000 nM | ≤ 1000 nM | –
19 | COc1ccc(-c2ncc(F)c(N(C)c3ccc4c(c3)OCCO4)n2)cc1OC [Compound 20, N4-(3,4-Ethylenedioxyphenyl)-2-(3,4-dimethoxyphenyl)-5-fluoro-N-4-methyl-4-pyrimidineamine] | > 20000 nM | > 20000 nM | IC50 [1]: > 20000 nM; IC50 [2]: > 20000 nM; IC50 [10]: > 20000 nM; IC50 [6]: > 20000 nM
20 | CN(c1ccc2c(c1)OCCO2)c1nc(-c2ccc3c(c2)OCO3)ncc1F [Compound 21, N4-(3,4-Ethylenedioxyphenyl)-5-fluoro-N-4-methyl-2-(3,4-methylenedioxyphenyl)-4-pyrimidineamine] | 1000 to 10000 nM | ≤ 10000 nM | IC50 [1]: ≤ 20000 nM; IC50 [2]: ≤ 20000 nM; IC50 [10]: ≤ 20000 nM; IC50 [6]: ≤ 20000 nM
21 | CN(c1ccc2c(c1)OCCO2)c1nc(-c2ccco2)ncc1F [Compound 22, N4-(3,4-Ethylenedioxyphenyl)-5-fluoro-2-(2-furyl)-N-4-methyl-4-pyrimidineamine] | ≤ 1000 nM | ≤ 1000 nM | IC50 [1]: ≤ 10000 nM; IC50 [2]: ≤ 10000 nM; IC50 [10]: ≤ 10000 nM; IC50 [6]: ≤ 10000 nM
22 | CN(c1ccc2c(c1)OCCO2)c1nc(-c2cccc(N)c2)ncc1F [Compound 23, 2-(3-Aminophenyl)-N-4-(3,4-ethylenedioxyphenyl)-5-fluoro-N-4-methyl-4-pyrimidineamine] | ≤ 1000 nM | ≤ 1000 nM | IC50 [1]: ≤ 10000 nM; IC50 [2]: ≤ 10000 nM; IC50 [10]: ≤ 10000 nM; IC50 [6]: ≤ 10000 nM
23 | CN(c1ccc2c(c1)OCCO2)c1nc(-c2ccsc2)ncc1F [Compound 25, N4-(3,4-Ethylenedioxyphenyl)-5-fluoro-N-4-methyl-2-(3-thienyl)-4-pyrimidineamine] | ≤ 1000 nM | ≤ 1000 nM | IC50 [1]: ≤ 1000 nM; IC50 [2]: ≤ 1000 nM; IC50 (A549): < 1000 nM; IC50 [11]: < 1000 nM; IC50 [10]: ≤ 1000 nM; IC50 [12]: < 1000 nM; IC50 [6]: ≤ 1000 nM; IC50 (HCT116): < 1000 nM
24 | CN(c1ccc2c(c1)OCCO2)c1nc(-c2ccoc2)ncc1F [Compound 26, N4-(3,4-Ethylenedioxyphenyl)-5-fluoro-2-(3-furyl)-N-4-methyl-4-pyrimidineamine] | ≤ 1000 nM | ≤ 1000 nM | IC50 [1]: ≤ 1000 nM; IC50 [2]: ≤ 1000 nM; IC50 [10]: ≤ 1000 nM; IC50 [6]: ≤ 1000 nM
25 | CN(c1ccc2c(c1)OCCO2)c1nc(-c2ccncc2)ncc1F [Compound 28, N4-(3,4-Ethylenedioxyphenyl)-5-fluoro-N-4-methyl-2-(pyridin-4-yl)-4-pyrimidineamine] | ≤ 1000 nM | ≤ 1000 nM | –
26 | CN(c1ccc2c(c1)OCCO2)c1nc(-c2ccc[nH]2)ncc1F [Compound 31, N4-(3,4-Ethylenedioxyphenyl)-5-fluoro-N-4-methyl-2-(1H-pyrrol-2-yl)-4-pyrimidineamine] | ≤ 1000 nM | ≤ 1000 nM | IC50 [1]: ≤ 1000 nM; IC50 [2]: ≤ 1000 nM; IC50 [10]: ≤ 1000 nM; IC50 [6]: ≤ 1000 nM
27 | Cc1ccc(-c2ncc(F)c(N(C)c3ccc4c(c3)OCCO4)n2)s1 [Compound 33, N4-(3,4-Ethylenedioxyphenyl)-5-fluoro-N-4-methyl-2-(5-methyl-2-thienyl)-4-pyrimidineamine] | 1000 to 10000 nM | ≤ 10000 nM | –
28 | Cc1cscc1-c1ncc(F)c(N(C)c2ccc3c(c2)OCCO3)n1 [Compound 34, N4-(3,4-Ethylenedioxyphenyl)-5-fluoro-N-4-methyl-2-(4-methyl-3-thienyl)-4-pyrimidineamine] | ≤ 1000 nM | ≤ 1000 nM | –
29 | CN(c1ccc2c(c1)OCCO2)c1nc(-c2cc3ccccc3s2)ncc1F [Compound 35, 2-(Benzothiophen-2-yl)-N-4-(3,4-ethylenedioxyphenyl)-5-fluoro-N-4-methyl-4-pyrimidineamine] | > 20000 nM | > 20000 nM | –
30 | CN(c1ccc2c(c1)OCCO2)c1nc(-c2csc3ccccc23)ncc1F [Compound 36, 2-(Benzothiophen-3-yl)-N-4-(3,4-ethylenedioxyphenyl)-5-fluoro-N-4-methyl-4-pyrimidineamine] | > 20000 nM | > 20000 nM | –
31 | N4-(3,4-Ethylenedioxyphenyl)-5-fluoro-2-(3-hydroxyphenyl)-N-4-methyl-4-pyrimidineamine [Compound 19] | 1000 to 10000 nM | ≤ 10000 nM | –
